Assay results published in patent US20010019728A1 (priority 1997, published 2001).
Where “and” joins values, the source holds several entries; their conditions need not be identical. Equal entries are not always repeated.

Columns and labels:
Details in all cases: in vivo
Fusarium oxysporum = test system: Fusarium oxysporum
[1] = test system: dagger nematode (Xiphinema index+Xiphinema americanum)
[2] = test system: total plant-parasitic nematode population
Xiphinema index = test system: Xiphinema index
Xiphinema americanum = test system: Xiphinema americanum
Tylenchorhynchus spp. = test system: Tylenchorhynchus spp.
Nonparasitic nematodes = test system: Nonparasitic nematodes

SMILES: CI [Methyl Iodide 0.5X, Methyl iodide]
- Fusarium oxysporum (Fusarium oxysporum): 3.79a Log (cfu/g soil) and 3.44a Log (cfu/g soil)

SMILES: CCOP(=O)(NC(C)C)Oc1ccc(SC)c(C)c1 (stereo not shown) [FENAMIPHOS®, FENAMIPHOS]
- reduction in the dagger nematode (Xiphinema index+Xiphinema americanum) populations relative to T5 [1]: 73%
- Plant-parasitic Nematode Population: Total [2]: 80.00a per 250 cc soil and 94.00a per 250 cc soil and 105.80a per 250 cc soil
- decrease in overall total plant-parasitic nematode population relative to the untreated control [2]: 30% and 31%
- decrease in overall total plant-parasitic nematodes populations relative to the untreated control [2]: 51%
- reduction in group nematode population without considering the Helicotylenchus nematode species [2]: 12%
- Plant-parasitic Nematode Population: Xiphinema index (Xiphinema index): 30.00a per 250 cc soil
- population increase in the soil Xiphinema index populations relative to the untreated control (Xiphinema index): 30%
- reduction of Xiphinema index populations (Xiphinema index): 84%
- Plant-parasitic Nematode Population: Xiphinema americanum (Xiphinema americanum): 10.00a per 250 cc soil and 9.00a per 250 cc soil and 5.40a per 250 cc soil
- decrease in the Xiphinema americanum populations relative to the untreated control (Xiphinema americanum): no effect
- decrease of the Xiphinema americanum population relative to T5 (Xiphinema americanum): not controlled
- Plant-parasitic Nematode Population: Tylenchorhynchus spp. (Tylenchorhynchus spp.): 0.00a per 250 cc soil

SMILES: C#CCBr [Propargyl Bromide, Propargyl bromide]
- Nonparasitic nematodes (Nonparasitic nematodes): 1,304a Nematodes/250 cc soil and 1,600cd Nematodes/250 cc soil
- Fusarium oxysporum (Fusarium oxysporum): 1.26d Log (cfu/g soil) and 1.10cd Log (cfu/g soil)

SMILES: CNC(=S)[S-].[Na+] [Metham Sodium 1X, Metham sodium]
- Nonparasitic nematodes (Nonparasitic nematodes): 944a Nematodes/250 cc soil and 651d Nematodes/250 cc soil
